Data as given in patent US10543183B2, “Treatment and diagnosis of melanoma” (The Rockefeller University, priority 2012, dated 2020).
Where a name gives a salt, the structure may show the parent alone.

Assays:
[1] = system: breast, renal, pancreatic and lung cancer cell lines; experiment: trans-well matrigel invasion assay, other cancer types; assay type: cell-based, human
Experimental: The ability of cancer cells to invade through matrigel in vitro was tested by using a trans-cell matrigel invasion chamber system (354480, BD Biosciences). Various cancer cell lines were serum-starved overnight in media containing 0.2% FBS. The following day, invasion chambers were pre-equilibrated prior to the assay by adding 0.5 mL of starvation media to the top and bottom wells. Meanwhile, cancer cells were trypsinized and viable cells were counted using the trypan blue dead cell exclusion dye. Cancer cells were then resuspended at a concentration of 1×10^5 cells/1 mL starvation media, and 0.5 mL of cell suspension, containing 5×10^4 cells, was seeded into each trans-well. […] The basal side of each insert was imaged using an inverted fluorescence microscope (Zeiss Axiovert 40 CFL) at 5× magnification, and the number of DAPI-positive cells was quantified using ImageJ.
The cells were serum starved for 16 hours in 0.2% FBS media in the presence of DMSO or GW3965. […] Meanwhile, cancer cells were trypsinized and viable cells were counted using trypan blue. […] The basal side of each insert was imaged using an inverted fluorescence microscope (Zeiss Axiovert 40 CFL) at 5× magnification, and the number of DAPI-positive cells was quantified using ImageJ.

[2] = system: B16F10 mouse melanoma cells; experiment: subcutaneous B16F10 tumor growth in mice; assay type: in vivo; conditions: chow 100 mg/kg
Experimental: First, the cells were treated with 500 μg/mL DTIC for one week. Following this initial DTIC treatment, the remaining (˜10%) viable cells were allowed to recover for one week, after which 750 μg/mL of DTIC was added to the cell media for 5 days. Subsequent to this high-dose treatment, the cells were allowed to recover in the presence of low-dose DTIC (100 μg/mL) for one week. The cells were then continuously cultured in cell media containing 200 μg/mL DTIC for at least one month prior to grafting the cells into mice. DTIC was added to fresh cancer cell media every 3 days. […] DTIC was dissolved in the presence of citric acid (1:1 by weight) in water and administered daily by intraperitoneal injection.

[3] = system: extracellular ApoE protein from melanoma cells; experiment: ApoE ELISA in conditioned media; assay type: cell-based, human; conditions: MeWo cells, 1 μM, 72 hours
Experimental: Extracellular ApoE levels in serum-free conditioned media from melanoma cells treated with DMSO, GW3965, or T0901317 (1 μM each) were quantified using the ApoE ELISA kit (Innovative Research) at 72 hours following treatment.

[4] = system: ApoE expression in systemic tissues; experiment: systemic ApoE expression in mouse tissues (western blot, qRT-PCR); assay type: in vivo; conditions: 10 days; for ApoE protein expression in systemic adipose, lung, and brain tissues: chow 20 mg/kg; for ApoE transcript levels in circulating white blood cells: diet 20 mg/kg
Experimental: Mouse lung and brain tissue samples were homogenized on ice in RIPA buffer (Sigma-Aldrich) supplemented with protease inhibitors (Roche). Mouse adipose tissue was homogenized on ice in TNET buffer (1.5 mM Tris pH 7.5, 150 mM NaCl, 2 mM EDTA 1% triton, protease inhibitors). Total protein lysate (2 μg) was separated by SDS-PAGE, transferred to PVDF membrane, and blotted with an anti-mouse ApoE (ab20874, Abcam) and anti-tubulin α/β (2148, Cell Signaling) antibodies. RNA was extracted from whole cell lysates using the Total RNA Purification Kit (17200, Norgen, Thorold, Canada). 600 ng of total RNA was then reverse transcribed into cDNA using the cDNA First-Strand Synthesis Kit (18080-051, Invitrogen), and quantitative real-time PCR amplification was performed as previously described (Pencheva et al., 2012) using an ABI Prism 7900HT Real-Time PCR System (Applied Biosystems, Austin, Tex.). Each PCR reaction was carried out in quadruplicates. Gene expression was normalized to GAPDH, which was used as an endogenous control.

[5] = system: ApoE expression in human melanoma cells; experiment: ApoE mRNA expression by qRT-PCR in melanoma cells; assay type: cell-based
Experimental: Total RNA was extracted from various cell lines using the miRvana kit (AM1560, Applied Biosystems, Austin, Tex.). The expression levels of mature miRNAs were quantified using the Taqman miRNA expression assay (4427975-0002228, Applied Biosystems). RNU44 was used as an endogenous control for normalization. For mRNA expression analyses, 600 ng of total RNA was reverse transcribed using the cDNA First-Strand Synthesis Kit (18080-051, Invitrogen), and roughly 200 ng of the resulting cDNA was then mixed with SYBR green PCR Master Mix (4309155, Applied Biosystems) and the appropriate primers. Each reaction was performed in quadruplicate, and mRNA expression was quantified by performing real-time PCR amplification using an ABI Prism 7900HT Real-Time PCR System (Applied Biosystems). GAPDH was used as an endogenous control for normalization. The following primers were used: […]
RNA was extracted from whole cell lysates using the Total RNA Purification Kit (17200, Norgen, Thorold, Canada). 600 ng of total RNA was then reverse transcribed into cDNA using the cDNA First-Strand Synthesis Kit (18080-051, Invitrogen), and quantitative real-time PCR amplification was performed as previously described (Pencheva et al., 2012) using an ABI Prism 7900HT Real-Time PCR System (Applied Biosystems, Austin, Tex.). Each PCR reaction was carried out in quadruplicates. Gene expression was normalized to GAPDH, which was used as an endogenous control.
For every sample, 600 ng of RNA was reverse transcribed into cDNA using the cDNA First-Strand Synthesis kit (Invitrogen). Approximately 200 ng of cDNA was mixed with SYBR® green PCR Master Mix and the corresponding forward and reverse primers specific for detection of human ApoE. Each reaction was carried out in quadruplicates, and ApoE mRNA expression levels were measured by quantitative real-time PCR amplification using an ABI Prism 7900HT Real-Time PCR System (Applied Biosystems). The relative ApoE expression was determined using the ΔΔCt method. GAPDH was used as an endogenous control for normalization purposes.

Compound | tumor cell invasion of renal, pancreatic and lung cancer cells ([1]; RCC, PANC1, H460 cells, 1 μM for 72 hours) | suppression of tumor growth by DTIC-resistant B16F10 clone [2] | levels of secreted ApoE protein [3] | ApoE protein expression in systemic adipose, lung, and brain tissues [4] | ApoE transcript levels in circulating white blood cells [4] | potency of ApoE expression induction in vitro [5] | expression of ApoE ([5]; parental MeWo cells, 48 hours) | tumor cell invasion across breast, renal cell and pancreatic cancer ([1]; 100 μg/mL at start of assay)
O=C(O)Cc1cccc(OCCCN(Cc2cccc(C(F)(F)F)c2Cl)CC(c2ccccc2)c2ccccc2)c1 [GW3965 2, 3-[3-[N-(2-Chloro-3-trifluoromethylbenzyl)-(2,2-diphenylethyl)amino]propyloxy] phenylacetic acid hydrochloride] | inhibition | more than 70% | elevated levels | significantly elevated | upregulated | potently induce | increased expression | 
O=S(=O)(c1ccccc1)N(CC(F)(F)F)c1ccc(C(O)(C(F)(F)F)C(F)(F)F)cc1 [T0901317 1] |  |  | elevated levels | significantly elevated | upregulated | potently induce |  | 
recombinant ApoE3: recombinant human ApoE3 (4696, BioVision) |  |  |  |  |  |  |  | inhibited
